Target: T1, HMG-CoA reductase (Rattus norvegicus, UniProt P51639)
T1 sequence (P51639 1-887): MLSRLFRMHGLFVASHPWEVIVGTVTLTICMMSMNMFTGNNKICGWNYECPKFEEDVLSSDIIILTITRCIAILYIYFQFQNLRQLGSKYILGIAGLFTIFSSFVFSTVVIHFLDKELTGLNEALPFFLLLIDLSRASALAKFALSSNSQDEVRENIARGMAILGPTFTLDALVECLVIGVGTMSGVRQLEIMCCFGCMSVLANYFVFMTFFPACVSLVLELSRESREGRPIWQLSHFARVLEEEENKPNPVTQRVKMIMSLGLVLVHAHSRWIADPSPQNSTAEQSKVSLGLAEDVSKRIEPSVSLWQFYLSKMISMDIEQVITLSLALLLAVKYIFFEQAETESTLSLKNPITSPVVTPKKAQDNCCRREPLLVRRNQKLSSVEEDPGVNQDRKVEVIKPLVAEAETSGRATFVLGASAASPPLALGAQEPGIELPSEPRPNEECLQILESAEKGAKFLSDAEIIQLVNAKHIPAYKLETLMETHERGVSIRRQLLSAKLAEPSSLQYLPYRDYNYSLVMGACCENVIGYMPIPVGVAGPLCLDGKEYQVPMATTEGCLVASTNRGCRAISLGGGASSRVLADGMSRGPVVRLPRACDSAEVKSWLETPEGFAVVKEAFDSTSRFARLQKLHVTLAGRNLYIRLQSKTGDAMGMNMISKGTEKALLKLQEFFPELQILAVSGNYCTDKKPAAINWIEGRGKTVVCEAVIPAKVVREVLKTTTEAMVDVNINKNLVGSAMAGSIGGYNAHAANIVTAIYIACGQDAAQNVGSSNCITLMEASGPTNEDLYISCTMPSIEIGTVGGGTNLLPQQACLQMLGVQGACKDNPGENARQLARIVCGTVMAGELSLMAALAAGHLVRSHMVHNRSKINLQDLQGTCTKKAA
Experiment: intrinsic HMG-CoA reductase inhibition, in vitro protocol of J. Med. Chem., 28, p. 347-358 (1985)
Type: biochemical
Conditions: IC50 of test compound compared with that of compactin determined simultaneously; compactin = 100
Method: The intrinsic HMG-CoA reductase inhibition activity of the claimed compounds is measured in the in vitro protocol published in J. Med. Chem., 28, p. 347-358 (1985).
For estimation of relative inhibitory potencies, compactin (i.e., mevastatin) was assigned a value of 100 and the IC50 value of the test compound was compared with that of compactin determined simultaneously in the published in vitro protocol.

Compound | Relative Potency
CCC(C)(C)C(=O)O[C@H]1CC(C)(C)C[C@@H]2CC[C@H](C)[C@H](CC[C@@H]3C[C@@H](O)CC(=O)O3)[C@H]21 [1,1-dimethylpropyl CH3 CH3, 6(R)-[2-(8(S)-(2,2-Dimethylbutyryloxy)-2(S),6,6-trimethyl-1,2,3,4,4a(S),5,6,7,8,8a(S)-decahydronaphthyl-1(S)]ethyl]-4(R) hydroxy-3,4,5,6-tetrahydro-2H pyran-2-one] | 111
CCC(C)(C)C(=O)O[C@H]1CC2(CC2)C[C@@H]2CC[C@H](C)[C@H](CC[C@@H]3C[C@@H](O)CC(=O)O3)[C@H]21 [1,1-dimethylpropyl --CH2 CH2 --] | 170

From patent US4866090A, “Novel HMG-CoA reductase inhibitors” (Merck & Co., Inc., priority 1988, dated 1989)
